≈ marks a conversion by molar mass, not a printed value. Entries after “also recorded” stand apart in the source; their conditions may differ.
How the values were obtained:
[1] = Solubility determination of propofol analogs in D2O by 1H NMR with DSS internal standard; details: for solubility: D2O, water, thermodynamic from solid
Description: Thus the soapy-like solutions obtained were diluted until opalescent and diluted further until the opalescence visually disappeared.

[2] = Pharmacokinetics: concentration of prodrug (or propofol) in rat plasma after intravenous infusion, LC/MS/MS; details: for Mean concentration of prodrug and propofol in rat plasma after intravenous infusion administration: analyte = administered compound; for AUC(0-inf) / AUC(0-t) / Cmax / MRT inf / Tmax / half-life / Vd / clearance: male, Sprague-Dawley, rat, plasma, iv, 0.168 mmol/Kg
Description: (§1) Blood samples were to be taken pre-dose, during dose and post dose at designated intervals, with the blood quickly processed and stored at −70° C. until analysis.
(§2) Formulations were prepared on the morning of the dosing day and each was passed through a 0.22 μm filter prior to being administered to animals. A standard dose of 0.168 mmol/Kg per analog was administered to each of the rats. […] Analog stability in the formulations was verified by preparing each formulation and harvesting 200 μL aliquots at 0, 1, 2 and 8 hr while standing at room temperature. After harvesting, each sample was immediately frozen in dry ice until analysis; concentrations of test compounds in the samples were examined by HPLC-UV.
(§3) The animals were surgically prepared with indwelling cannula, double cannulation in carotid artery and jugular vein for i.v. infusion. The anesthetic pentobarbital was used during the surgery, and the animals were allowed to recover 3-5 days after surgery before the formulation was dosed. The dose formulation was administered intravenously via the jugular vein cannula. The 16.8 μmol/mL formulation was administered i.v. at a rate of 1 mL/Kg/min for 10 min.
(§4) Approximately 0.20 mL blood was collected at each designated time point from carotid artery via a catheter. A total of 12 plasma samples were taken from each animal: 1 pre-dose; 2 during the dose (5 into the 10 min infusion and one just prior termination of the 10 min infusion) and 9 post-infusion at 2, 5, 15, 30 min and 1, 2, 3, 4, and 6 hr post-dose. All blood samples were transferred into plastic microcentrifuge tubes containing 5 μL of K2-EDTA (0.5M) as anti-coagulant and placed on ice until processed for plasma. Blood samples were processed for plasma by centrifugation at approximately 5° C. Plasma samples were then stored in 1.5 mL tubes, quick frozen over dry ice and kept at −70±10° C. until LC/MSMS analysis.
(§5) For each, a minimum of 6 standard point curve runs in duplicates, and minimum of 5 standards were back calculated to within ±20% of their nominal concentrations. The LLOQ of each test article in plasma was established and 6 QC samples were included in assay runs of samples to ensure assay performance.
(§6) Plasma concentration versus time data was analyzed by non-compartmental approaches using the WinNonlin software program (version 5.2, Pharsight, Mountain View, Calif.) and the pharmacokinetic parameters T½, CL, Vss, AUC(0-t), AUC(0-inf), MRT, and graphs of plasma concentration versus time calculated for each.

[3] = Pharmacokinetics: concentration of propofol in rat plasma after intravenous infusion of each pro-drug, LC/MS/MS; details: for Mean Concentration of Propofol in Rat Plasma After Intravenous Administration: analyte propofol from the administered compound; for pro-drug efficiency, release of propofol: releasing the propofol in a matter of minutes after infusion, rat
Description: as §1, §2, §3, §4, §5, §6

rats = assay: Clinical observations of rats during administration of propofol analogs in the pharmacokinetics study
Description: as §1, §2, §3

[4] = time post-10 min i.v. infusion, 0.168 mmol/Kg

SMILES	solubility [1]	Mean concentration of prodrug and propofol in rat plasma after intravenous infusion administration ([2]; Time 0 h (pre-dose))	Mean concentration of prodrug and propofol in rat plasma after intravenous infusion administration ([2]; Time 0.25 h)	Mean concentration of prodrug and propofol in rat plasma after intravenous infusion administration ([2]; Time 0.417 h)	Mean concentration of prodrug and propofol in rat plasma after intravenous infusion administration ([2]; Time 0.667 h)	Mean concentration of prodrug and propofol in rat plasma after intravenous infusion administration ([2]; Time 1.166 h)	Mean concentration of prodrug and propofol in rat plasma after intravenous infusion administration ([2]; Time 2.166 h)	Mean concentration of prodrug and propofol in rat plasma after intravenous infusion administration ([2]; Time 3.166 h)	Mean concentration of prodrug and propofol in rat plasma after intravenous infusion administration ([2]; Time 4.166 h)	Mean concentration of prodrug and propofol in rat plasma after intravenous infusion administration ([2]; Time 6.166 h)	Mean Concentration of Propofol in Rat Plasma After Intravenous Administration ([3]; Time 0 h (pre-dose))	pro-drug efficiency, release of propofol [3]	Clinical Observation: recovered at (rats; [4])	AUC(0-inf) [2]	AUC(0-t) [2]	Cmax [2]	MRT inf [2]	Tmax [2]	half-life [2]	Vd [2]	further results
CC(C)c1cccc(C(C)C)c1OC(=O)OCCO[C@@H]1O[C@H](CO)[C@@H](O)[C@H](O)[C@H]1O [Compound 9]	9.4 mM (≈ 4030 µg/mL)	BQL	BQL	BQL	BQL	BQL	BQL	BQL	BQL	BQL	BQL	very efficient pro-drugs	recovered at about 30 min								Mean concentration of prodrug and propofol in rat plasma after intravenous infusion administration ([2]; Time 0.083 h (during 10 min infusion)): BQL; Mean concentration of prodrug and propofol in rat plasma after intravenous infusion administration ([2]; Time 0.167 h (end of 10 min infusion)): BQL; Mean concentration of prodrug and propofol in rat plasma after intravenous infusion administration ([2]; Time 0.2 h): BQL
CC(C)c1cccc(C(C)C)c1OC(=O)OCCCO[C@@H]1O[C@H](CO)[C@@H](O)[C@H](O)[C@H]1O [Compound 12]	5.5 mM (≈ 2430 µg/mL)	BQL	BQL	BQL	BQL	BQL	BQL	BQL	BQL	BQL	BQL	very efficient pro-drugs	recovered at about 30 min	0.00122 µM·h	0.000773 µM·h	0.00678 µM	6 min	10.2 min	3.6 min		Mean concentration of prodrug and propofol in rat plasma after intravenous infusion administration ([2]; Time 0.2 h): BQL; Mean Concentration of Propofol in Rat Plasma After Intravenous Administration ([3]; Time 4.166 h): BQL; Mean Concentration of Propofol in Rat Plasma After Intravenous Administration ([3]; Time 6.166 h): BQL
CC(C)c1cccc(C(C)C)c1OC(=O)NCCO[C@@H]1O[C@H](CO)[C@@H](O)[C@H](O)[C@H]1O [Compound 17]	1.6 mM (≈ 684 µg/mL)	BQL									BQL			71.8 µM·h	61.6 µM·h	313 µM	16.6 min	10.2 min	26.2 min	0.657 L/kg	water solubility (in words) ([1]; reason for cosolvent in the dose formulation): poor water solubility; clearance [2]: 39.1 mL/min/kg; Mean Concentration of Propofol in Rat Plasma After Intravenous Administration ([3]; Time 2.166 h): BQL; Mean Concentration of Propofol in Rat Plasma After Intravenous Administration ([3]; Time 3.166 h): BQL; Mean Concentration of Propofol in Rat Plasma After Intravenous Administration ([3]; Time 4.166 h): BQL; Mean Concentration of Propofol in Rat Plasma After Intravenous Administration ([3]; Time 6.166 h): BQL; Clinical Observation (adverse findings, individual rats) (rats; times post-10 min infusion, vehicle 10% Tween80, cloudy): died at 15 min; also recorded: died at 1.5 h from hematuria
CC(C)c1cccc(C(C)C)c1OC(=O)OCCO[C@@H]1O[C@H](CO)C(O[C@H]2O[C@H](CO)[C@@H](O)[C@H](O)[C@H]2O)[C@H](O)[C@H]1O (stereo partly drawn) [Compound 24]	> 20 mM	BQL					BQL		BQL	BQL	BQL	very efficient pro-drugs	recovered at about 30 min	0.791 µM·h	0.786 µM·h	8.1 µM	12.4 min	8.4 min	53.2 min	120 L/kg	clearance [2]: 5800 mL/min/kg
CC(C)c1cccc(C(C)C)c1OC(=O)OCCCO[C@@H]1O[C@H](CO)C(O[C@H]2O[C@H](CO)[C@@H](O)[C@H](O)[C@H]2O)[C@H](O)[C@H]1O (stereo partly drawn) [Compound 25, 1-((2′,6′-diisopropylphenoxy)carbonyloxy)propyl-β-D-maltose]	> 20 mM	BQL						BQL	BQL	BQL	BQL	very efficient pro-drugs	recovered at about 35 min	8.57 µM·h	8.57 µM·h	68.4 µM	4.62 min	10.2 min	15.2 min	1.51 L/kg	clearance [2]: 337 mL/min/kg
CC(C)c1cccc(C(C)C)c1OC(=O)OCCO[C@H]1O[C@H](CO)[C@@H](O)[C@H](O)[C@H]1O [Compound 32]	13.3 mM (≈ 5700 µg/mL)	BQL	BQL	BQL	BQL	BQL	BQL	BQL	BQL	BQL	BQL	very efficient pro-drugs	recovered at about 26 min		0.000657 µM·h	0.00538 µM		8.4 min			Clinical Observation: Rats soporous at (rats; [4]): Rats soporous at about 3 min and
CC(C)c1cccc(C(C)C)c1OC(=O)OCCCO[C@H]1O[C@H](CO)[C@@H](O)[C@H](O)[C@H]1O [Compound 33]	5.7 mM (≈ 2520 µg/mL)	BQL	BQL	BQL	BQL	BQL	BQL	BQL	BQL	BQL	BQL	very efficient pro-drugs	recovered at about 30 min		0.00304 µM·h	0.0231 µM		10.2 min			Mean Concentration of Propofol in Rat Plasma After Intravenous Administration ([3]; Time 4.166 h): BQL; Mean Concentration of Propofol in Rat Plasma After Intravenous Administration ([3]; Time 6.166 h): BQL; Clinical Observation: Rats soporous at (rats; [4]): Rats soporous at about 3 min and
CC(C)c1cccc(C(C)C)c1O [Propofol, 2,6-diisopropylphenol, reference compound]	1.1 mM (≈ 196 µg/mL)										BQL			12.6 µM·h	10.6 µM·h	31.9 µM	209 min	10.8 min	383 min	61.2 L/kg	clearance [2]: 265 mL/min/kg; Clinical Observation: Rats soporous at (rats; [4]): Rats soporous at about 4 min and; Clinical Observation: recovered at (rats; time post-10 min infusion, 5% cremophor vehicle): recovered at about 1.5 hr

Source: patent US20120295866A1, “Synthesis And Use Of Glycoside Pro-Drug Analogs” (Nutek Pharma Ltd., priority 2011, published 2012)
